Here are results for two compounds from US11780832B2, “Lactivicin compounds, their preparation and use as antibacterial agents” (priority 2021, dated 2023).

Common to all, as to test: MIC, CLSI broth microdilution
Holding throughout (format): cell-based

The test system of assay [1] is Acinetobacter baumannii ATCC 19606. The note with it: ATCC19606. The method, boiled down:
(§1)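 Working inoculum of 5×10^5 CFU/mL, prepared from freshly subcultured genotyped strains, was dispensed onto two-fold compound dilutions giving final concentrations of 16-0.0125 μg/mL. Testing adhered to CLSI broth microdilution methodology.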

The test system of assay [2] is Citrobacter freundii species complex OXA-181. The essentials: as §1
Assay [3] concerns Enterobacter cloacae species complex NDM-1. The essentials: as §1
In assay [4] the test system is Escherichia coli ATCC 25922. Particulars: ATCC25922. The essentials: as §1
For the next assay, the system named is Escherichia coli CMY-2. The note with it: CMY2. The essentials: as §1
Assay [5] has as its system Escherichia coli CTX-M-15. Particulars: CTXM15. The essentials: as §1
The subject of assay [6] is Escherichia coli Empty pSMART plasmid. The method, boiled down:
as §1

The subject of assay [7] is Escherichia coli Isogenic TEM-10. The essentials: (§2)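 The read-out is the minimum inhibitory concentration determined by CLSI broth microdilution. Final compound levels ran from 16 to 0.0125 μg/mL in two-fold steps against about 5×10^5 CFU/mL of genotypically characterized bacteria.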
The test system of assay [8] is Escherichia coli Isogenic TEM-26. The method, boiled down: as §2
The test system of a further assay is Escherichia coli SHV-12. The note with it: SHV12. The method, boiled down: as §1
In assay [9] the test system is Escherichia coli pSMART_Cfreundii_AmpC. The method, boiled down:
as §2

In assay [10] the test system is Escherichia coli pSMART_Ecloacae_AmpC. The method, boiled down: as §2
Assay [11] deals with Klebsiella aerogenes VIM-1, SHV-12. The method, boiled down:
as §1

In assay [12] the test system is Klebsiella oxytoca KPC-2, TEM-1. The essentials: as §1
Assay [13] concerns Klebsiella pneumoniae KPC-2. Particulars: KPC2. The method, boiled down: as §1
Assay [14] has as its system Klebsiella pneumoniae KPC-3. The essentials:
as §1

Assay [15] has as its system Klebsiella pneumoniae OXA-163, OXA-1_OXA-30, SHV-1, TEM-1. The essentials: as §2
The subject of assay [16] is Klebsiella pneumoniae OXA-48, SHV-1. The method, boiled down: as §2
For assay [17], the system named is Klebsiella pneumoniae SHV-12. The method, boiled down:
as §1

For assay [18], the system named is Pseudomonas aeruginosa ATCC 27853. Particulars: ATCC27853. The essentials:
as §1

The test system of assay [19] is Pseudomonas aeruginosa AmpC overexpressed. The essentials: as §2
Assay [20] relates to Pseudomonas aeruginosa OprD negative. The method, boiled down:
as §2

Assay [21] relates to Serratia marcescens AmpC overexpressed. The essentials: as §2
Assay [22] concerns Serratia marcescens SME-2. Particulars: SME2. The essentials:
as §1

In brackets after ≈: the same amount, converted by molar mass. Read-outs that look alike come from different tables or passages of the source.

For `CC(C)(O/N=C(\C(=O)N[C@H]1CON(C2(C(=O)O)C[C@H](N3C(=O)c4cc(O)c(O)nc4C3=O)C(=O)O2)C1=O)c1csc(N)n1)C(=O)O` (stereo partly drawn) [Cmpd 36, (4S)-2-[(4S)-4-{[(2Z)-2-(2-amino-1,3-thiazol-4-yl)-2-{[(2-carboxypropan-2-yl)oxy]imino}acetyl]amino}-3-oxo-1,2-oxazolidin-2-yl]-4-(2,3-dihydroxy-5,7-dioxo-5,7-dihydro-6H-pyrrolo[3,4-b]pyridin-6-yl)-5-oxooxolane-2-carboxylic acid], the minimal inhibitory concentration (MIC) in [1] amounted to 0.12 µg/mL (≈ 0.181 µM); in assay [2] (Citrobacter freundii) it was 0.0149 µg/mL (≈ 0.0225 µM); in [3] it was 0.25 µg/mL (≈ 0.377 µM); in assay [4] it was 0.06 µg/mL (≈ 0.0904 µM); against Escherichia coli CMY-2, 1 µg/mL (≈ 1.51 µM); in assay [5], 2 µg/mL (≈ 3.01 µM). Moreover, the minimal inhibitory concentration (MIC) in assay [6] amounted to 0.06 µg/mL (≈ 0.0904 µM); in [7] it was 0.0149 µg/mL (≈ 0.0225 µM); in [8], 0.0149 µg/mL (≈ 0.0225 µM); against Escherichia coli SHV-12 it was 1 µg/mL (≈ 1.51 µM); in [9] it was 0.06 µg/mL (≈ 0.0904 µM); in [10] it was 0.03 µg/mL (≈ 0.0452 µM). Also, the minimal inhibitory concentration (MIC) was 2 µg/mL (≈ 3.01 µM) in assay [11]; 0.0149 µg/mL (≈ 0.0225 µM) in assay [12]; 0.12 µg/mL (≈ 0.181 µM) in assay [13]; 0.0149 µg/mL (≈ 0.0225 µM) in assay [14] (KPC3); 0.06 µg/mL (≈ 0.0904 µM) in assay [15]; 0.0149 µg/mL (≈ 0.0225 µM) in assay [16]. Moreover, the MIC is 0.0149 µg/mL (≈ 0.0225 µM) in assay [17] (SHV12); 0.12 µg/mL (≈ 0.181 µM) in assay [18]; 0.5 µg/mL (≈ 0.754 µM) in [19]; 0.12 µg/mL (≈ 0.181 µM) in assay [20]; 0.06 µg/mL (≈ 0.0904 µM) in [21]; 0.06 µg/mL (≈ 0.0904 µM) in assay [22].
Consider `CC(C)(O/N=C(\C(=O)N[C@H]1CON(C2(C(=O)O)C[C@@H](N3C(=O)c4cc(O)c(O)cc4C3=O)C(=O)O2)C1=O)c1csc(N)n1)C(=O)O` (stereo partly drawn) [Cmpd 40, (4R)-2-[(4S)-4-{[(2Z)-2-(2-amino-1,3-thiazol-4-yl)-2-{[(2-carboxypropan-2-yl)oxy]imino}acetyl]amino}-3-oxo-1,2-oxazolidin-2-yl]-4-(5,6-dihydroxy-1,3-dioxo-1,3-dihydro-2H-isoindol-2-yl)-5-oxooxolane-2-carboxylic acid], for which the MIC in assay [1] is 0.12 µg/mL (≈ 0.181 µM); in assay [2] (Citrobacter freundii species complex, OXA-181, read-out: MIC), 0.25 µg/mL (≈ 0.377 µM); in [3] it was 2 µg/mL (≈ 3.02 µM); in [4], 0.06 µg/mL (≈ 0.0906 µM); against Escherichia coli CMY-2, 2 µg/mL (≈ 3.02 µM); in [5], 2 µg/mL (≈ 3.02 µM). Moreover, the minimum inhibitory concentration (MIC) was not above 0.015 µg/mL in [6]; 0.03 µg/mL (≈ 0.0453 µM) in assay [7]; not above 0.015 µg/mL in assay [8]; 1 µg/mL (≈ 1.51 µM) against Escherichia coli SHV-12; 0.12 µg/mL (≈ 0.181 µM) in assay [9]; 0.06 µg/mL (≈ 0.0906 µM) in assay [10]. Further, the minimum inhibitory concentration (MIC) in [11] was 0.25 µg/mL (≈ 0.377 µM); in assay [12] (KPC-2, TEM-1, read-out: MIC) it was not above 0.015 µg/mL; in assay [13], not above 0.015 µg/mL; in [14] (KPC3, KPC-3, read-out: MIC) it was 0.03 µg/mL (≈ 0.0453 µM); in assay [15], 0.06 µg/mL (≈ 0.0906 µM); in assay [16], 0.03 µg/mL (≈ 0.0453 µM). Further, the MIC in [17] (SHV12, SHV-12, read-out: MIC) was not above 0.015 µg/mL; in assay [18], 0.12 µg/mL (≈ 0.181 µM); in [19] it was 8 µg/mL (≈ 12.1 µM); in assay [20], 0.12 µg/mL (≈ 0.181 µM); in assay [21], 0.12 µg/mL (≈ 0.181 µM); in [22], 0.06 µg/mL (≈ 0.0906 µM).

As a reminder, the MIC is the lowest concentration that inhibits growth of the organism.
